Source: patent publication US20040009904A1, “APL immunoreactive peptides, conjugates thereof and methods of treatment for aPL antibody-mediated pathologies” (priority 1995, published 2004)
Bridge positions count the residues as written; N and C are the ends. Square brackets hold non-standard residues; d marks the D form. Peptide text beside a SMILES is read from it. Phg = N[C@H](C(=O)O)c1ccccc1; Aib = CC(C)(N)C(=O)O; Sar = CNCC(=O)O

Target: ACA-6501
Assay: Competitive binding peptide ACA ELISA, cardiolipin/β2-GPI-coated plates
Design: species or system human
Conditions: Optimization of Peptide 3G3; inf = no 50% inhibition
Procedure: A variation of this assay uses microtitration plates coated with human β2-glycoprotein I/cardiolipin (β2-GPI/CL) instead of tetravalent peptide and tests the ability of monomeric peptides to block the binding of aPL antibody to the epitope(s) on β2-GPI/CL. In this assay, IgG-depleted human serum at an optimized concentration is used as a source of β2-GPI. The monomeric peptides at several concentrations are incubated with an optimized concentration of aPL antibody in a manner analogous to the assay which employs tetravalent peptide as a plate substrate. Following the incubation of aPL/peptide in (β2-GPI/CL) plates, antibody binding and the peptide concentration required for 50% inhibition is determined at half-maximal absorbance as in the tetravalent assay.
Peptide sequences for all five peptides immediately follow the table. All were tested using the competitive binding peptide ACA ELISA using CL/β2-GPI plates as described herein.
(B) Immulon I® 96-well, flat-bottom, polystyrene microtitration plates (Dynatech Laboratories, Inc., Chantilly, Va.) were coated with 30 μL/well of cardiolipin (CL, 50 μg; Sigma Chemical Co., St. Louis, Mo.) in ethanol. Two control wells received 30 μL ethanol only. After overnight evaporation at 4° C., each well was blocked with 200 μL of 5% (w/v) fish gelatin in PBS for 2 hours at RT.
During this incubation, variable amounts of each of six peptides were mixed with 22 μL ACA-6501 serum diluted with 3% fish gelatin in 1:1 TBS/PBS (final dilution of 1:400) in a final volume of 220 μL using Eppendorf microcentrifuge tubes. Specifically, in tube #1 were mixed 181.3 μL of 3% fish gelatin in TBS-PBS, 16.7 μL of peptide stock solution plus 22 μL of ACA-6501 serum diluted 40 times in 3% fish gelatin/TBS-PBS. Stock solutions ranged from 450-800 μg/mL for peptides #951 (diserine non-cyclized negative control), #952 (a lot of LJP 690), and thioethers CCTE-3G3, CHTE-3G3, HCTE-3G3 and HHTE-3G3. To tube #2 the following were added: 148 μL fish gelatin/TBS-PBS, […] of peptide stock solution, plus 22 μL of 40 times diluted ACA-6501 serum. Tube #3 contained 48 μL fish gelatin/TBS-PBS, […] of peptide stock solution, plus 22 μL of 40 times diluted ACA-6501 serum. The control tube #4 received 396 μL fish gelatin/TBS-PBS and 44 μL of 40 times diluted ACA-6501 serum (no peptide). Each of the tubes incubated for approximately 1 hour at RT.
The CL/β2-GPI microtitration plate was washed 5 times with TBS and 100 μL aliquots in duplicate from Eppendorf tubes #1, 2, 3, and 4 containing the antibody-peptide (or no peptide mixtures) were added to the wells. A volume of 100 μL from tube #4 was added to the duplicate control wells containing no cardiolipin. The microtitration plate was incubated for 1 hour at RT with agitation at 40 rpm in an orbital shaker (American Scientific, Rotator V), washed 5 times with TBS and then 100 μL of 1:1000 goat anti-human IgG alkaline phosphatase conjugate (Zymed, Cat No. 62-8422) in 0.5% (w/v) BSA-TBS was added. Following incubation for 1 hour at RT, the microtitration plate was again washed 5 times with TBS and the colorimetric enzyme detection developed by adding 100 μL of PMPP solution (7.8 g phenolphthalein monophosphate plus 69.5 g of 2-amino-2-methyl-1-propanol in 100 mL water stock solution diluted 1:26 with water). After 21 minutes, the reaction was stopped by adding 50 μL of 0.2 M Na2HPO4 (Mallinckrodt) to each well. Absorbance at 550 nm was read in a microplate reader (Bio-Tek Instruments, Model EL 311). The amount of peptide that inhibited ACA-6501 binding by 50%, the IC50, was calculated from the graph at the intersection of half-maximal absorbance with amount of peptide added.

Compound | with ACA 6501 150 ug/mL
CC(C)C[C@@H]1NC(=O)[C@H](C(C)C)NC(=O)CNC(=O)[C@H](CC(C)C)NC(=O)[C@@H](N)CSSC[C@@H](C(=O)O)NC(=O)C(C)(C)NC(=O)[C@H](CCCCN)NC(=O)CNC1=O [C L G V L G K aiB C] (H-CLGVLGK[Aib]C-OH; disulfide 1-9) | >470 µg/mL
CC(C)C[C@@H]1NC(=O)[C@H](C(C)C)NC(=O)CNC(=O)[C@H](CC(C)C)NC(=O)[C@@H](N)CSSC[C@@H](C(=O)O)NC(=O)[C@H](C)NC(=O)[C@H](CCCCN)NC(=O)CNC1=O [C L G V L G K A C] (H-CLGVLGKAC-OH; disulfide 1-9) | 360 µg/mL
CC(C)C[C@@H]1NC(=O)[C@H](CCCCN)NC(=O)CNC(=O)[C@@H](CC(C)C)NC(=O)[C@H](C(C)C)NC(=O)CNC(=O)[C@H](CC(C)C)NC(=O)[C@@H](N)CSSC[C@@H](C(=O)O)NC1=O [C L G V dL G K L C] (H-CLGV[dL]GKLC-OH; disulfide 1-9) | 230 µg/mL
CC(C)C[C@@H]1NC(=O)[C@H](CCCCN)NC(=O)CNC(=O)[C@H](CC(C)C)NC(=O)[C@H](C(C)C)NC(=O)CNC(=O)CNC(=O)[C@@H](N)CSSC[C@@H](C(=O)O)NC1=O [C G G V L G K L C] (H-CGGVLGKLC-OH; disulfide 1-9) | 310 µg/mL
CC(C)C[C@@H]1NC(=O)[C@H](CCCCN)NC(=O)CNC(=O)[C@H](CC(C)C)NC(=O)[C@H](C(C)C)NC(=O)CNC(=O)[C@H](C(C)C)NC(=O)[C@@H](N)CSSC[C@@H](C(=O)O)NC1=O [C V G V L G K L C] (H-CVGVLGKLC-OH; disulfide 1-9) | 130 µg/mL
CC(C)C[C@@H]1NC(=O)[C@H](CCCCN)NC(=O)[C@H](c2ccccc2)NC(=O)[C@H](CC(C)C)NC(=O)[C@H](C(C)C)NC(=O)CNC(=O)[C@H](CC(C)C)NC(=O)[C@@H](N)CSSC[C@@H](C(=O)O)NC1=O [C L G V Lp G K L C] (H-CLGVL[Phg]KLC-OH; disulfide 1-9) | 30 µg/mL
CC(C)C[C@@H]1NC(=O)[C@H](CCCCN)NC(=O)CN(C)C(=O)[C@H](CC(C)C)NC(=O)[C@H](C(C)C)NC(=O)CNC(=O)[C@H](CC(C)C)NC(=O)[C@@H](N)CSSC[C@@H](C(=O)O)NC1=O [C L G V L nG K L C] (H-CLGVL[Sar]KLC-OH; disulfide 1-9) | 550 µg/mL
CC(C)C[C@@H]1NC(=O)[C@H](CCCCN)NC(=O)CNC(=O)[C@H](CC(C)C)NC(=O)[C@H](C(C)C)NC(=O)CNC(=O)[C@@H]2CCCN2C(=O)[C@@H](N)CSSC[C@@H](C(=O)O)NC1=O [C P G V L G K L C] (H-CPGVLGKLC-OH; disulfide 1-9) | 160 µg/mL
CC(C)C[C@@H]1NC(=O)[C@@H](NC(=O)[C@@H]2CCCN2C(=O)CN)CSSC[C@@H](C(=O)N2CCC[C@H]2C(=O)NCC(=O)O)NC(=O)[C@H](CC(C)C)NC(=O)[C@H](CCCCN)NC(=O)CNC(=O)[C@H](CC(C)C)NC(=O)[C@H](C(C)C)NC(=O)CNC1=O [G P C L G V L G K L C P G] (H-GPCLGVLGKLCPG-OH; disulfide 3-11) | 180 µg/mL
CC(C)C[C@@H]1NC(=O)[C@H](CCCCN)NC(=O)CNC(=O)[C@H](CC(C)C)NC(=O)[C@H](C(C)C)NC(=O)CN(C)C(=O)[C@H](CC(C)C)NC(=O)[C@@H](N)CSSC[C@@H](C(=O)O)NC1=O [C L nG V L G K L C] (H-CL[Sar]VLGKLC-OH; disulfide 1-9) | 70 µg/mL
CC(C)C[C@@H]1NC(=O)[C@H](CCCCN)NC(=O)CNC(=O)[C@H](CC(C)C)NC(=O)[C@H](C(C)C)NC(=O)CNC(=O)C(C)(C)NC(=O)[C@@H](N)CSSC[C@@H](C(=O)O)NC1=O [C aiB G V L G K L C] (H-C[Aib]GVLGKLC-OH; disulfide 1-9) | 370 µg/mL
CC(C)C[C@@H]1NC(=O)[C@H](CCCNC(=N)N)NC(=O)CNC(=O)[C@H](CC(C)C)NC(=O)[C@H](C(C)C)NC(=O)CNC(=O)[C@H](CC(C)C)NC(=O)[C@@H](N)CSSC[C@@H](C(=O)O)NC1=O [C L G V L G R L C] (H-CLGVLGRLC-OH; disulfide 1-9) | 160 µg/mL
CC(C)C[C@@H]1NC(=O)[C@H](C)NC(=O)CNC(=O)[C@H](CC(C)C)NC(=O)[C@@H](N)CSSC[C@@H](C(=O)O)NC(=O)[C@H](CC(C)C)NC(=O)[C@H](CCCCN)NC(=O)CNC1=O [C L G A L G K L C] (H-CLGALGKLC-OH; disulfide 1-9) | 260 µg/mL
C L G V aiB G K L C | inf.
CC(C)C[C@@H]1NC(=O)[C@H](C(C)C)NC(=O)CNC(=O)[C@H](CC(C)C)NC(=O)[C@@H](N)CSSC[C@@H](C(=O)O)NC(=O)[C@H](c2ccccc2)NC(=O)[C@H](CCCCN)NC(=O)CNC1=O [C L G V L G K pG C] (H-CLGVLGK[Phg]C-OH; disulfide 1-9) | 80 µg/mL
CC(C)C[C@@H]1NC(=O)[C@H](CCCCN)NC(=O)CNC(=O)[C@H](CC(C)C)NC(=O)[C@H](C(C)C)NC(=O)CNC(=O)[C@H](c2ccccc2)NC(=O)[C@@H](N)CSSC[C@@H](C(=O)O)NC1=O [C pG G V L G K L C] (H-C[Phg]GVLGKLC-OH; disulfide 1-9) | 130 µg/mL
CLGVGGKLC [C L G V G G K L C] | inf
CC(C)C[C@@H]1NC(=O)[C@H](C(C)C)NC(=O)CNC(=O)[C@H](CC(C)C)NC(=O)[C@@H](N)CSSC[C@@H](C(=O)O)NC(=O)[C@@H]2CCCN2C(=O)[C@H](CCCCN)NC(=O)CNC1=O [C L G V L G K P C] (H-CLGVLGKPC-OH; disulfide 1-9) | 550 µg/mL
CC(C)C[C@@H]1NC(=O)[C@H](CCCCN)NC(=O)CNC(=O)[C@H](CC(C)C)NC(=O)[C@H](C(C)C)NC(=O)[C@H](c2ccccc2)NC(=O)[C@H](CC(C)C)NC(=O)[C@@H](N)CSSC[C@@H](C(=O)O)NC1=O [C L pG V L G K L C] (H-CL[Phg]VLGKLC-OH; disulfide 1-9) | 70 µg/mL
CLGVLCKLC [C L G V L C K L C] | 500 µg/mL
CLGVPGKLC [C L G V P G K L C] | Inf.
CC(C)C[C@@H]1NC(=O)[C@H](CCCCN)NC(=O)CNC(=O)[C@H](CC(C)C)NC(=O)[C@H](C(C)C)NC(=O)C(C)(C)NC(=O)[C@H](CC(C)C)NC(=O)[C@@H](N)CSSC[C@@H](C(=O)O)NC1=O [C L aiB V L G K L C] (H-CL[Aib]VLGKLC-OH; disulfide 1-9) | 80 µg/mL
CC(C)C[C@@H]1NC(=O)[C@H](c2ccccc2)NC(=O)CNC(=O)[C@H](CC(C)C)NC(=O)[C@H](C(C)C)NC(=O)CNC(=O)[C@H](CC(C)C)NC(=O)[C@@H](N)CSSC[C@@H](C(=O)O)NC1=O [C L G V L Gp G L C] (H-CLGVLG[Phg]LC-OH; disulfide 1-9) | 230 µg/mL
CC(C)C[C@@H]1NC(=O)[C@@H](NC(=O)[C@H]2CCCN2)CSSC[C@@H](C(=O)O)NC(=O)[C@H](CC(C)C)NC(=O)[C@H](CCCCN)NC(=O)CNC(=O)[C@H](CC(C)C)NC(=O)[C@H](C(C)C)NC(=O)CNC1=O [dP C L G V L G K L C] (H-[dP]CLGVLGKLC-OH; disulfide 2-10) | 120 µg/mL
CC(C)C[C@@H]1NC(=O)[C@H](C(C)C)NC(=O)CNC(=O)[C@H](CC(C)C)NC(=O)[C@@H](N)CSSC[C@@H](C(=O)O)NC(=O)CNC(=O)[C@H](CCCCN)NC(=O)CNC1=O [C L G V L G K G C] (H-CLGVLGKGC-OH; disulfide 1-9) | 500 µg/mL
